Data taken from ChEMBL document CHEMBL3792277, “Structurally Diverse Mitochondrial Branched Chain Aminotransferase (BCATm) Leads with Varying Binding Modes Identified by Fragment Screening” (J Med Chem, 2016).
In brackets after ≈: the same amount, converted by molar mass.

Molecular target: T1, Branched-chain-amino-acid aminotransferase, mitochondrial (Homo sapiens, UniProt O15382)
T1 sequence (O15382 whole entry): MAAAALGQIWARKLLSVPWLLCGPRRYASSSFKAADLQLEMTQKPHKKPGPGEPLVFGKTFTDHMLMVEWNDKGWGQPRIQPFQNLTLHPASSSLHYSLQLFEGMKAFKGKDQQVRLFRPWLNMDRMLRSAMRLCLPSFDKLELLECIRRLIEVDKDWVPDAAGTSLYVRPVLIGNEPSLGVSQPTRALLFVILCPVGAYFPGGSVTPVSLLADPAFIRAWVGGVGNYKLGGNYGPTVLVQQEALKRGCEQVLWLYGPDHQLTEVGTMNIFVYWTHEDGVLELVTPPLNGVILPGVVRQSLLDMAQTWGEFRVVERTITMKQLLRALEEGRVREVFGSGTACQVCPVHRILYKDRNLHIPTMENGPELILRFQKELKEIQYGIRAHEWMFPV
Assay: Inhibition of human BCATm incubated for 10 mins by Amplex red- based fluorescence analysis
`NC(=O)c1ccc(NC(=O)c2ccccc2)cc1` showed an IC50 of 50.1 µM.
With `CS(=O)(=O)c1ccccc1C(=O)Nc1ccccc1` the IC50 was 200 µM.
With `O=C(O)Cc1ccccc1C(=O)Nc1ccc(-c2cc[nH]n2)cc1` the IC50 was 2 µM.
For `NC(=O)c1sccc1-c1ccccc1`, the IC50 was 158 µM.
For `NC(=O)c1ccc(N2CCc3ccccc3C2=O)cc1`, the IC50 was 15.8 µM.
With `Cc1cccc(NC(=O)c2sc3nc[nH]c(=O)c3c2C)c1` the IC50 was > 63.1 µM.
`NC(=O)c1ccccc1-c1ccccc1` gave an IC50 of 158 µM.
`Cc1ccccc1NC(=O)c1sc2ncnc(O)c2c1C` gave an IC50 of 50.1 µM.
With `CC(C)C(Sc1ncnc2ccccc12)C(=O)O` (configuration not stated) the IC50 was 7.94 µM.
In the case of `Cc1c(C(=O)Nc2ccccc2S(C)(=O)=O)sc2nc[nH]c(=O)c12`, the IC50 is reported as > 63.1 µM.
For `CC1CNc2c(cccc2S(N)(=O)=O)C1` (configuration not stated), the IC50 was > 1260 µM.
With `O=C(Nc1cnc(-c2cc[nH]n2)nc1)c1ccccc1` the IC50 was 3.16 µM.
With `Cc1c(C(=O)Nc2ccccc2)sc2ncnc(O)c12` the IC50 was 7.94 µM.
For `Cc1c(C(=O)NC2CCCC2)sc2ncn(C)c(=O)c12`, the IC50 was > 63.1 µM.
For `O=C(CO)NC1CCCc2ccccc21` (configuration not stated), the IC50 was > 1260 µM.
For `NC(=O)NCC(O)c1ccccc1` (configuration not stated), the IC50 was 794 µM.
`Nc1ccc(Oc2ccccc2)nn1` gave an IC50 of 126 µM.
With `Cc1ccc(NC(=O)c2sc3nc[nH]c(=O)c3c2C)cc1` the IC50 was > 63.1 µM.
For `Cc1c(C(=O)Nc2ccccc2)sc2ncn(C)c(=O)c12`, the IC50 was 7.94 µM.
For `NC(=O)c1ccc(NC(=O)c2ccc(Cl)c(Cl)c2)cc1`, the IC50 was 2.51 µM.
For `Cc1cc2cc(C)c(SCC(=O)O)nc2cc1C`, the IC50 was 0.251 µM.
Work on `O=C(Nc1cncnc1)c1ccccc1` yielded an IC50 of 1000 µM.
For `OCc1ccc2nsnc2c1`, the IC50 was > 1260 µM.
In the case of `Cc1c(C(=O)Nc2ccon2)sc2nc[nH]c(=O)c12`, the IC50 is reported as > 63.1 µM.
In the case of `O=C(O)Cc1noc2ccccc12`, the IC50 is reported as > 1260 µM.
With `Cc1c(C(=O)N2CCCCC2)sc2ncn(C)c(=O)c12` the IC50 was > 631 µM.
Work on `O=C(Nc1ccc(-c2cc[nH]n2)cc1)c1ccccc1` yielded an IC50 of 5.01 µM.
For `O=C(Nc1ccccc1)c1ccccc1` [N-PHENYLBENZAMIDE], the IC50 was > 631 µM.
Compound `O=C1c2ccccc2CCN1c1ccc(-c2cc[nH]n2)cc1` has an IC50 of 1.58 µM.
With `CCOC(=O)Cc1ccccc1NC(=O)c1sc2nc[nH]c(=O)c2c1C` the IC50 was > 63.1 µM.
For `O=C(O)Cc1ccccc1C(=O)Nc1ccccc1`, the IC50 was 316 µM.
For `Cc1c(C(=O)O)sc2ncn(C)c(=O)c12`, the IC50 was 63.1 µM.

Test system: not listed separately
Assay: Solubility of compound in PBS at pH 7.4 after 1 hr by chemiluminiscent nitrogen detection method
Type: physicochemical
`NC(=O)c1ccc(NC(=O)c2ccccc2)cc1` showed a solubility at 1 h of 13 µg/mL (≈ 54.1 µM).
Compound `NC(=O)c1ccc(N2CCc3ccccc3C2=O)cc1` has a solubility at 1 h of 132 µg/mL (≈ 496 µM).
With `O=C(Nc1cnc(-c2cc[nH]n2)nc1)c1ccccc1` the solubility at 1 h was 82 µg/mL (≈ 309 µM).
Work on `O=C(Nc1ccc(-c2cc[nH]n2)cc1)c1ccccc1` yielded a solubility at 1 h of 12 µg/mL (≈ 45.6 µM).
In the case of `O=C1c2ccccc2CCN1c1ccc(-c2cc[nH]n2)cc1`, the solubility at 1 h is reported as 94 µg/mL (≈ 325 µM).
